Values quoted from earlier work as cited in US20230201309A1, “COMPOSITIONS FOR THE TREATMENT OF A RESPIRATORY CONDITION” (VECTURA LIMITED, priority 2020, published 2023).

Tested on: COVID-19

Structure (SMILES): CCN(CCO)CCCC(C)Nc1ccnc2cc(Cl)ccc12 (centres unmarked) [hydroxychloroquine sulphate]
- Hospital mortality (hospitalised COVID-19 patients, hydroxychloroquine sulphate monotherapy plus supportive care, total dose 2400 mg, 804/4,542 patients): 17.7%
- mortality, adjusted hazard ratio (aHR) vs no-hydroxychloroquine sulphate group (multivariate analysis, 95% CI 0.617-0.758): 0.684
